Experimental data as given in patent US11613547B2 (priority 2019, dated 2023).
Values joined by “and” are separate entries in the source; they are usually repeats but may differ in a detail not shown here. Equal values may be shown once. “Also recorded” adds a separate entry of the source.

Key:
mDOR [1] = target: T1, mDOR (Mus musculus, UniProt P32300); assay: Radioligand competition binding ([125I]IBNtxA), CHO membranes, mDOR
T1 construct: expressed in transfected cells

mMOR = target: T2, mMOR (Mus musculus, UniProt P42866); assay: [35S]GTPγS functional assay, mMOR; format: biochemical
T2 construct: expressed in transfected cells

mKOR = target: T3, mKOR (Mus musculus, UniProt P33534); assay: [35S]GTPγS functional assay, mKOR; format: biochemical
T3 construct: expressed in transfected cells

mDOR [2] = target: T1, mDOR; assay: [35S]GTPγS functional assay, mDOR; format: biochemical
hMOR [3] = target: T4, hMOR (Homo sapiens, UniProt P35372); assay: cell-based; format: cell-based
T4 construct: expressed in transfected cells; host or cells: HEK 293T (ATCC CRL-11268), transient

hMOR [4] = target: T4, hMOR; assay: Tango β-arrestin recruitment assay, hMOR; format: cell-based; settings: Tango
hKOR [5] = target: T5, hKOR (Homo sapiens, UniProt P41145); assay: cAMP inhibition assay (GloSensor, HEK 293T), hKOR; format: cell-based
T5 construct: expressed in transfected cells; host or cells: HEK 293T (ATCC CRL-11268), transient

hKOR [6] = target: T5, hKOR; assay: Tango β-arrestin recruitment assay, hKOR; format: cell-based
[7] = target: T6, mouse mu opioid receptor (mMOR) (Mus musculus, UniProt P42866); assay: cell-based; format: cell-based
T6 construct: expressed in transfected cells; host or cells: HEK-293T, transient (PEI), with BRET sensor cDNAs

[8] = target: T6, mouse mu opioid receptor (mMOR); assay: cell-based; format: cell-based; remark: listed apart in the source
[9] = target: T7, rat kappa opioid receptor (rKOR) (Rattus norvegicus, UniProt P34975); assay: BRET assay, G-protein activation, rKOR; format: cell-based
T7 construct: expressed in transfected cells; host or cells: HEK-293T, transient (PEI), with BRET sensor cDNAs

[10] = target: T7, rat kappa opioid receptor (rKOR); assay: BRET assay, arrestin recruitment, rKOR; format: cell-based; settings: BRET
[11] = target: T8, mouse delta opioid receptor (mDOR) (Mus musculus, UniProt P32300); assay: BRET assay, G-protein activation, mDOR; format: cell-based
T8 construct: expressed in transfected cells; host or cells: HEK-293T, transient (PEI), with BRET sensor cDNAs

C57BL/6J mice [12] = assay: 55° C. warm-water tail-withdrawal assay; format: in vivo, mouse; settings: icv, 55° C. tail withdrawal
Procedure: (§1) Tail-withdrawal assay The 55° C. warm-water tail-withdrawal assay was conducted in mice as a measure of acute thermal antinociception as described previously (Reilley et al., 2010). Briefly, each mouse was tested for baseline tail-withdrawal latency prior to drug administration. Following drug administration, the latency for each mouse to withdraw the tail was measured every 10 minutes until latency returned to the baseline value. A maximum response time of 15 seconds was utilized to prevent tissue damage. […] Data are reported as percent antinociception, calculated by the equation: % antinociception=100×[(test latency−baseline latency)/(15−baseline latency)]. This was utilized to account for innate variability between mice. Compounds were administered either, […] (IP) or intracerebroventricular (icv) and the analgesic action of compounds was assessed at the peak effect as described previously (Haley and McCormick, 1957). In brief, mice were anesthetized using isoflurane. A small incision was made, and the drug (2 μl/mouse) was injected (using a 10 μL Hamilton syringe fitted to a 27-gauge needle) into the right lateral ventricle at the following coordinates: 2 mm caudal to bregma, 2 mm lateral to sagittal suture, and 2 mm in depth. Mice were tested for analgesia at the peak effect post injection.

[13] = tested on: MOR KO, KOR KO, DOR KO mice; assay: Tail-withdrawal antinociception in opioid receptor knock out mice; format: in vivo, mouse; settings: 30 nmol icv, relative to WT
Procedure: as §1

330 non-olfactory GPCRs = assay: PRESTO-Tango GPCRome β-arrestin recruitment screen; format: cell-based; settings: 3 μM
Procedure: Assessment of off-target activity of MP1207 using PRESTO-Tango GPCR-ome To identify potential off-target activity of MP1207, the National Institutes of Mental Health Psychoactive Drug Screen Program were used. MP1207 was first tested for activity against 330 non-olfactory GPCRs using the PRESTO-Tango GPCRome screening β-arrestin recruitment assay at 3 μM MP1207. The activity at each receptor was measured in quadruplicate.
Screening of compounds was accomplished using previously described methods with several modifications (www.ncbi.nlm.nih.gov/pmc/articles/PMC4424118/). First, HTLA cells were plated in DMEM with 2% dialyzed FBS and 10 U/mL penicillin-streptomycin. Next, the cells were transfected using an in-plate PEI method (www.ncbi.nlm.nih.gov/pmc/articles/PMC4012321/). PRESTO-Tango receptor DNAs were resuspended in OptiMEM and hybridized with PEI prior to dilution and distribution into 384-well plates and subsequent addition to cells. After overnight incubation, drugs diluted in DMEM with 1% dialyzed FBS were added to cells without replacement of the medium. The remaining steps of the PRESTO-Tango protocol were followed as previously described.

C57 mice = assay: Respiratory rate (CLAMS)
C57/B6 mice = assay: Locomotor effect (CLAMS); settings: 30 or 100 nmol icv
hDOR [14] = target: T9, hDOR (Homo sapiens, UniProt P41143); assay: cAMP inhibition assay, hDOR; format: cell-based; design: expressed in transfected cells
Y312W-hKOR [15] = target: T10, Y312W-hKOR (Homo sapiens, UniProt P41145, Y312W); assay: Tango-arrestin recruitment assay, Y312W-hKOR mutant; format: cell-based; design: expressed in transfected cells; settings: Tango, compared with wild-type KOR
C57BL/6J mice [16] = assay: Conditioned place preference and aversion; settings: MP1207 100 nmol icv, morphine 10 mg/kg IP, U50,488h 30 mg/kg IP
hDOR [17] = target: T9, hDOR; assay: Tango β-arrestin recruitment assay, hDOR; format: cell-based; design: expressed in transfected cells; host or cells: HTLA cells expressing TEV fused-beta-Arrestin2
Y312W-hKOR [18] = target: T10, Y312W-hKOR; assay: cAMP inhibition assay, Y312W-hKOR mutant; format: cell-based; design: expressed in transfected cells; host or cells: HEK 293T (inferred from the general cAMP method)

T10 sequence (P41145 whole entry Y312W): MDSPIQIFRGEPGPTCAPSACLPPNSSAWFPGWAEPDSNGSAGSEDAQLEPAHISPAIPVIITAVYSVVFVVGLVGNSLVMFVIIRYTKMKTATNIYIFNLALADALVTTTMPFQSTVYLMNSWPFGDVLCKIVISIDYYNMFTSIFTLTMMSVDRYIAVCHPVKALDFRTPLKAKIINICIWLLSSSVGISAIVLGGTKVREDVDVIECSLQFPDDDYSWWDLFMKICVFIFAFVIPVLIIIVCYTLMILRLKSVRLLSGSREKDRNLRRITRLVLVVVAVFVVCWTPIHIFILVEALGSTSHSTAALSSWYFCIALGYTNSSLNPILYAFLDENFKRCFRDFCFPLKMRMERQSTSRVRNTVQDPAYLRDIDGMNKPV
T4 sequence (P35372 whole entry): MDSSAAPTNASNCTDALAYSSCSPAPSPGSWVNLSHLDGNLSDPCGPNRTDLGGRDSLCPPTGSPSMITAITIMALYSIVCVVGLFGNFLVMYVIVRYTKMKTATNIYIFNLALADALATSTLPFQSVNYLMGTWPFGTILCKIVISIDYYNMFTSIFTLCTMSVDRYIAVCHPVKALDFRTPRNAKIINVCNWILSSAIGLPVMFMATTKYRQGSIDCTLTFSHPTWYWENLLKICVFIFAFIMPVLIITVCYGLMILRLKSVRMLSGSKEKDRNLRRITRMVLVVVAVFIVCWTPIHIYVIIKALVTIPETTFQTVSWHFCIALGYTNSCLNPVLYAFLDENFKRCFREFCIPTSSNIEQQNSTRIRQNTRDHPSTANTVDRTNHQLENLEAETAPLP
T9 sequence (P41143 whole entry): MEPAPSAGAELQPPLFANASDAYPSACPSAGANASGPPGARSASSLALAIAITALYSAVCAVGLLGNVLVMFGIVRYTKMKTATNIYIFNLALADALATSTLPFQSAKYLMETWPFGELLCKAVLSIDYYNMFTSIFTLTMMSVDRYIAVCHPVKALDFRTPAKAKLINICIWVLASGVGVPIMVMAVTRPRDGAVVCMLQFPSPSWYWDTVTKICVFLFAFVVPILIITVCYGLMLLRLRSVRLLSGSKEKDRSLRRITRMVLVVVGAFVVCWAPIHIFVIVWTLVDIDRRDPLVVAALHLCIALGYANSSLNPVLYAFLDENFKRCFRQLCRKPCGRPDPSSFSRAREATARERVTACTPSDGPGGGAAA
T1 sequence (P32300 whole entry): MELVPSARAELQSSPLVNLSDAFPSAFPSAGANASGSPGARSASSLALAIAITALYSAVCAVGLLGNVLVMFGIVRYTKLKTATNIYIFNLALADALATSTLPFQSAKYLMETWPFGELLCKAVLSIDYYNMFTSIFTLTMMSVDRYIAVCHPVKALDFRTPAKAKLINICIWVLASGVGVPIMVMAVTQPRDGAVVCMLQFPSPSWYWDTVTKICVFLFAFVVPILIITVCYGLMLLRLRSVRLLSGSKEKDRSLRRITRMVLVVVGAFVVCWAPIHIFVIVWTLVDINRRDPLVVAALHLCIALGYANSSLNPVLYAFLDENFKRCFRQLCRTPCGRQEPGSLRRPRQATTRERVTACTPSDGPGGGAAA
T6 sequence (P42866 whole entry): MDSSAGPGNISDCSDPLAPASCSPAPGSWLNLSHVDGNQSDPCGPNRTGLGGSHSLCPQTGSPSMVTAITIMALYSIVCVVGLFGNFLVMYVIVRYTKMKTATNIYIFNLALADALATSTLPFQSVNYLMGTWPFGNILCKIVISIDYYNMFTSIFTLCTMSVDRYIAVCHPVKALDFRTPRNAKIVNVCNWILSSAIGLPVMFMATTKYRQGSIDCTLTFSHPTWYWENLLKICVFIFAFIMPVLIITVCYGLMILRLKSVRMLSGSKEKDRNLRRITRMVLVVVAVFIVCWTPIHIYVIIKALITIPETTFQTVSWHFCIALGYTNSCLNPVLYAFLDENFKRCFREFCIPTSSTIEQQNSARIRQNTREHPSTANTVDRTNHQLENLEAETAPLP
T5 sequence (P41145 whole entry): as the sequence (P41145 whole entry Y312W) above, with W312Y counted along it
T7 sequence (P34975 whole entry): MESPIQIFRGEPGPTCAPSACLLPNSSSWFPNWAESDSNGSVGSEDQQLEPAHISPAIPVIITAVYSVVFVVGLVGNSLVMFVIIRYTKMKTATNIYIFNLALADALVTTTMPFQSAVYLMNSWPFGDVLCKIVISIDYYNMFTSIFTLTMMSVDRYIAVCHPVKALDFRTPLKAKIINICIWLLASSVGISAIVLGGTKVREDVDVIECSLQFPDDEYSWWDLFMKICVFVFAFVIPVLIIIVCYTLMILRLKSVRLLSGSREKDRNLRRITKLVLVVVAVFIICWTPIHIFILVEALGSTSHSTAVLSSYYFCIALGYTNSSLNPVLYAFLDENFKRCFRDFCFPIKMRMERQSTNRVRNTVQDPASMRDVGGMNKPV
T8 sequence (P32300 whole entry): as the sequence (P32300 whole entry) above
T3 sequence (P33534 whole entry): as the sequence (P34975 whole entry) above, with E11D, A17S, P51S, V308A counted along it
T2 sequence (P42866 whole entry): as the sequence (P42866 whole entry) above

Structure (SMILES): NCc1cccc(C(=O)NC2CCC3C4Cc5ccc(O)c6c5C3(CCN4CC3CC3)C2O6)c1 [MP1207, 3-(Aminomethyl)-N-((7R,726S)-3-(cyclopropylmethyl)-9-hydroxy-2,3,4,4a,5,6,7,7a-octahydro-1H-4,12-methanobenzofuro[3,2-e]isoquinolin-7-yl)benzamide]
- selectivity of MOR and KOR over DOR in the binding assays (mDOR [1]): > 40 fold
- Emax (mMOR): 41 ± 1%
- Emax (mKOR): 39.3 ± 1.3%
- Emax (mDOR [2]): 10 to 15%
- efficacy at mDOR (mDOR [2]; [35S]GTPγS): only weak efficacy
- EC50 (hMOR [3]): 0.0339 nM
- Emax (hMOR [3]; HEK-293T, read-out: Gi Emax hMOR): 33 ± 1.4%
- arrestin recruitment at hMOR (hMOR [4]): no recruitment of arrestin was seen; also recorded: no arrestin recruitment was observed
- Emax (hKOR [5]; HEK-293T, read-out: Gi Emax hKOR): 90 ± 1.7%
- Bias factor toward G protein, hKOR (hKOR [5]; cAMP inhibition vs Tango, against U50,488H as control): 8
- Emax (hKOR [6]): 37 ± 2%
- EC50 (hKOR [6]; Tango, WT-hKOR): 3.97 nM
- EC50 [7]: 3.61 nM
- Emax ([7]; read-out: Gi Emax mMOR): 42 ± 2.6%
- arrestin recruitment at mMOR [8]: no recruitment of βarrestin-2; also recorded: no arrestin recruitment was observed
- EC50 ([9]; BRET, read-out: Gi EC50 rKOR): 1.13 nM
- Emax ([9]; read-out: Gi Emax rKOR): 32 ± 2.3%
- arrestin recruitment at rKOR [10]: no recruitment of βarrestin-2; also recorded: no arrestin recruitment was observed
- EC50 ([11]; mDOR, BRET): 116 nM
- Emax ([11]; read-out: G-Protein activation Emax % ± SEM): 52 ± 2.3%
- antinociceptive ED50 (95% CI) (C57BL/6J mice [12]): 6.1 (4.1-8.9) nmol and 6.1 nmol
- antinociception in DOR KO mice [13]: remained intact
- antinociception in KOR KO mice [13]: significantly attenuated
- antinociception in MOR KO mice [13]: significantly attenuated
- selectivity for opioid receptors in GPCRome screen (330 non-olfactory GPCRs; agonism in arrestin recruitment TANGO assay): reasonable selectivity for opioid receptors over 330 GPCRs; also recorded: selectivity for opioid receptors over non-opioid targets
- increase in signal over basal at opioid receptors (330 non-olfactory GPCRs; predominantly at KOR and DOR, much less at MOR): 2 fold over basal
- respiratory rate (C57 mice; 30 nmol icv): stimulated respiration; also recorded: an increase in the respiratory rate
- respiratory rate (C57 mice; 100 nmol icv): still stimulated respiration; also recorded: slight right shift of effect
- locomotor effect (C57/B6 mice): stimulated locomotor activity; also recorded: increase in the forward locomotory effect
- EC50 (hDOR [14]; hDOR): 11.4 nM
- Emax (hDOR [14]; read-out: cAMP inhibition Emax % ± SEM): 38 ± 2%
- arrestin recruitment at Y312W-hKOR (Y312W-hKOR [15]): further reduction of arrestin recruitment; also recorded: reduced arrestin measurement
- conditioned place preference or aversion (CPP/CPA) (C57BL/6J mice [16]): failed to show either rewarding or aversive behavior; also recorded: did not display GPP seen with morphine or CPA behavior seen with U50, 488h
- EC50 (hDOR [17]; hDOR, Tango): 64.1 nM
- Emax (hDOR [17]; read-out: Arrestin recruitment Emax % ± SEM): 34 ± 3.7%
- EC50 (Y312W-hKOR [18]; cAMP inhibition, read-out: Gi EC50 Y312W-hKOR): 0.16 nM
- Emax (Y312W-hKOR [18]; read-out: Gi Emax Y312W-hKOR): 95 ± 1.8%
